Data as given in PubChem BioAssay AID1259407 (Chemical Carcinogenesis Research Information System (CCRIS), 2018).
Calls of active or inactive are those of the source. No rule for the calls is given here.

System: CCRIS mutagenicity, Ames/micronucleus/aberration tests
Experiment: CCRIS mutagenicity studies
[1] = Test System: AMES SALMONELLA TYPHIMURIUM, Strain/Indicator: TA98, Metabolic Activation: HAMSTER, LIVER, S-9, AROCLOR 1254, Method: STANDARD PLATE
[2] = Test System: AMES SALMONELLA TYPHIMURIUM, Strain/Indicator: TA98, Metabolic Activation: NONE, Method: STANDARD PLATE
[3] = Test System: AMES SALMONELLA TYPHIMURIUM, Strain/Indicator: TA98, Metabolic Activation: RAT, LIVER, S-9, AROCLOR 1254, Method: STANDARD PLATE
[4] = Test System: AMES SALMONELLA TYPHIMURIUM, Strain/Indicator: TA100, Metabolic Activation: HAMSTER, LIVER, S-9, AROCLOR 1254, Method: STANDARD PLATE
[5] = Test System: AMES SALMONELLA TYPHIMURIUM, Strain/Indicator: TA100, Metabolic Activation: NONE, Method: STANDARD PLATE
[6] = Test System: AMES SALMONELLA TYPHIMURIUM, Strain/Indicator: TA100, Metabolic Activation: RAT, LIVER, S-9, AROCLOR 1254, Method: STANDARD PLATE
[7] = Test System: AMES SALMONELLA TYPHIMURIUM, Strain/Indicator: TA1535, Metabolic Activation: HAMSTER, LIVER, S-9, AROCLOR 1254, Method: STANDARD PLATE
[8] = Test System: AMES SALMONELLA TYPHIMURIUM, Strain/Indicator: TA1535, Metabolic Activation: NONE, Method: STANDARD PLATE
[9] = Test System: AMES SALMONELLA TYPHIMURIUM, Strain/Indicator: TA1535, Metabolic Activation: RAT, LIVER, S-9, AROCLOR 1254, Method: STANDARD PLATE
[10] = Test System: AMES SALMONELLA TYPHIMURIUM, Strain/Indicator: TA1537, Metabolic Activation: HAMSTER, LIVER, S-9, AROCLOR 1254, Method: STANDARD PLATE
[11] = Test System: AMES SALMONELLA TYPHIMURIUM, Strain/Indicator: TA1537, Metabolic Activation: NONE, Method: STANDARD PLATE
[12] = Test System: AMES SALMONELLA TYPHIMURIUM, Strain/Indicator: TA1537, Metabolic Activation: RAT, LIVER, S-9, AROCLOR 1254, Method: STANDARD PLATE
[13] = Test System: AMES SALMONELLA TYPHIMURIUM, Strain/Indicator: TA1538, Metabolic Activation: HAMSTER, LIVER, S-9, AROCLOR 1254, Method: STANDARD PLATE
[14] = Test System: AMES SALMONELLA TYPHIMURIUM, Strain/Indicator: TA1538, Metabolic Activation: NONE, Method: STANDARD PLATE
[15] = Test System: AMES SALMONELLA TYPHIMURIUM, Strain/Indicator: TA1538, Metabolic Activation: RAT, LIVER, S-9, AROCLOR 1254, Method: STANDARD PLATE

| Compound | mutagenic call [1] | mutagenic call [2] | mutagenic call [3] | mutagenic call [4] | mutagenic call [5] | mutagenic call [6] | mutagenic call [7] | mutagenic call [8] | mutagenic call [9] | mutagenic call [10] | mutagenic call [11] | mutagenic call [12] | mutagenic call [13] | mutagenic call [14] | mutagenic call [15] | other results |
| --- | --- | --- | --- | --- | --- | --- | --- | --- | --- | --- | --- | --- | --- | --- | --- | --- |
| COCCCN | inactive; negative | inactive; negative | inactive; negative | inactive; negative | inactive; negative | inactive; negative | inactive; negative | inactive; negative | inactive; negative | inactive; negative | inactive; negative | inactive; negative | inactive; negative | inactive; negative | inactive; negative | mutagenic call (Test System: Mouse lymphoma, Strain/Indicator: L5178Y (tk+/tk-), Metabolic Activation: None, Method: Suspension/plate): inactive; negative; mutagenic call (Test System: Mouse lymphoma, Strain/Indicator: L5178Y (tk+/tk-), Metabolic Activation: Rat, Liver, S-9, Aroclor 1254, Method: Suspension/plate): inactive; negative |
| CCCCOS(=O)(=O)c1ccc(C)cc1 |  |  |  |  | active; positive |  |  |  |  |  |  |  |  |  |  | mutagenic call (End Point: IN VITRO MICRONUCLEUS, Test System: MOUSE LYMPHOMA L5178Y CELLS, Metabolic Activation: NONE): active; positive; mutagenic call (End Point: IN VITRO MICRONUCLEUS, Test System: MOUSE LYMPHOMA L5178Y CELLS, Metabolic Activation: RAT, LIVER, S-9): inactive; negative; mutagenic call (End Point: In vitro micronucleus, Test System: Chinese Hamster Ovary (CHO-WBL) cells, Metabolic Activation: None): active; positive (p<0.01); mutagenic call (Test System: AMES SALMONELLA TYPHIMURIUM, Strain/Indicator: TA100, Metabolic Activation: RAT, LIVER, S-9, Method: STANDARD PLATE): active; positive |
| CCCCCCCCC=O | inactive; negative | inactive; negative | inactive; negative | inactive; negative | inactive; negative | inactive; negative | inactive; negative | inactive; negative | inactive; negative | inactive; negative | inactive; negative | inactive; negative | inactive; negative | inactive; negative | inactive; negative | mutagenic call (End Point: IN VITRO CHROMOSOMAL ABERRATIONS, Test System: RAT HEPATOCYTES, Metabolic Activation: NONE): inactive; negative; mutagenic call (End Point: IN VITRO MICRONUCLEUS, Test System: RAT HEPATOCYTES, Metabolic Activation: NONE): inactive; negative; mutagenic call (Test System: AMES SALMONELLA TYPHIMURIUM, Strain/Indicator: TA98, Metabolic Activation: RAT, LIVER, S-9, AROCLOR, Method: STANDARD PLATE): inactive; negative; mutagenic call (Test System: AMES SALMONELLA TYPHIMURIUM, Strain/Indicator: TA100, Metabolic Activation: RAT, LIVER, S-9, AROCLOR, Method: STANDARD PLATE): inactive; negative; mutagenic call (Test System: AMES SALMONELLA TYPHIMURIUM, Strain/Indicator: UTH8413, Metabolic Activation: NONE, Method: STANDARD PLATE): inactive; negative; mutagenic call (Test System: AMES SALMONELLA TYPHIMURIUM, Strain/Indicator: UTH8413, Metabolic Activation: RAT, LIVER, S-9, AROCLOR, Method: STANDARD PLATE): inactive; negative; mutagenic call (Test System: AMES SALMONELLA TYPHIMURIUM, Strain/Indicator: UTH8414, Metabolic Activation: NONE, Method: STANDARD PLATE): inactive; negative; mutagenic call (Test System: AMES SALMONELLA TYPHIMURIUM, Strain/Indicator: UTH8414, Metabolic Activation: RAT, LIVER, S-9, AROCLOR, Method: STANDARD PLATE): inactive; negative; mutagenic call (Test System: CHINESE HAMSTER V-79, Strain/Indicator: V-79/6-THIOGUANINE (HGPRT), Metabolic Activation: NONE, Method: REPLATING): active; positive; mutagenic call (Test System: CHINESE HAMSTER V-79, Strain/Indicator: V-79/OUABAIN (NA/K), Metabolic Activation: NONE, Method: REPLATING): active; positive; mutagenic call (Test System: MOUSE LYMPHOMA, Strain/Indicator: L5178Y (TK+/TK-), Metabolic Activation: NONE, Method: SUSPENSION/PLATE): inactive; negative. reevaluation of results: equivocal; mutagenic call (Test System: MOUSE LYMPHOMA, Strain/Indicator: L5178Y (TK+/TK-), Metabolic Activation: RAT, LIVER, S-9, AROCLOR 1254, Method: SUSPENSION/PLATE): inactive; negative. reevaluation of results: equivocal; mutagenic call (Test System: UDS HUMAN HEPATOCYTES, Strain/Indicator: THY INCORP, Metabolic Activation: NONE, Method: AUTORADIOGRAPHY): inactive; negative; mutagenic call (Test System: UDS RAT HEPATOCYTES, Strain/Indicator: THY INCORP, Metabolic Activation: NONE, Method: AUTORADIOGRAPHY): inactive; negative |
| COc1cc(CNC(=O)CCCCCCC(C)C)ccc1O | inactive; negative |  | inactive; negative | inactive; negative | inactive; negative | inactive; negative | inactive; negative | inactive; negative | inactive; negative | inactive; negative | inactive; negative | inactive; negative | inactive; negative | inactive; negative | inactive; negative |  |
| Cc1cc(Cl)ccc1N |  | inactive; negative | active; positive |  | inactive; negative | inactive; negative |  | inactive; negative |  |  | inactive; negative |  |  |  |  | mutagenic call (End Point: IN VITRO CHROMOSOMAL ABERRATIONS, Test System: CHINESE HAMSTER OVARY CELLS, Metabolic Activation: NONE): inactive; negative; authors report that the study may not have allowed sufficient time for; mutagenic call (End Point: IN VITRO CHROMOSOMAL ABERRATIONS, Test System: CHINESE HAMSTER OVARY CELLS, Metabolic Activation: RAT, LIVER, S-9, AROCLOR 1254): active; positive; mutagenic call (Test System: AMES SALMONELLA TYPHIMURIUM, Strain/Indicator: TA98, Metabolic Activation: RAT, LIVER, S-9, CLOPHEN A50, Method: STANDARD PLATE): active; positive; mutagenic call (Test System: AMES SALMONELLA TYPHIMURIUM, Strain/Indicator: TA100, Metabolic Activation: RAT, LIVER, S-9, CLOPHEN A50, Method: STANDARD PLATE): active; positive; mutagenic call (Test System: AMES SALMONELLA TYPHIMURIUM, Strain/Indicator: TA1535, Metabolic Activation: RAT, LIVER, S-9, CLOPHEN A50, Method: STANDARD PLATE): inactive; negative; mutagenic call (Test System: AMES SALMONELLA TYPHIMURIUM, Strain/Indicator: TA1537, Metabolic Activation: RAT, LIVER, S-9, CLOPHEN A50, Method: STANDARD PLATE): inactive; negative |
